For assay [1], the system named is collagen-induced arthritis. Put plainly: Collagen-induced arthritis (CIA) model in rats. The assay is classed as in vivo. Particulars: Rattus norvegicus, 168 h, read-out: ED50 in rat CIA model. Here is the method: Collagen-induced Arthritis (CIA) Model in Rats
Porcine type II collagen (10 mg) was dissolved in 0.1N acetic acid (5 mL) two days prior to use on a rotating plate in the refrigerator. Subsequently, collagen was emulsified 1:1 with Freund's incomplete adjuvant using an emulsification needle and glass syringes yielding a final concentration of 1 mg/mL.
Disease was induced in each animal by intradermal injection of emulsified collagen in IFA at 10 different sites (100 μL per site) over the back. The clinical onset of arthritis varied between days 10 to 12 as indicated by hind paw swelling and ambulatory difficulties. At onset (defined as Day 0), rats were randomized to treatment groups and therapy was initiated with drug or vehicle control as noted in table above. Rats were treated for 7 days and were sacrificed on Day 8.

Assay [2] deals with TNF-α production by LPS-activated THP1 cells. Put plainly: Lipopolysaccharide-activated THP1 cell TNF production assay. It is filed as cell-based. Particulars: Homo sapiens, read-out: IC50 in THP-1 cellular TNF production assay. Here is the method: Lipopolysaccharide-Activated THP1 Cell TNF Production Assay
THP1 cells were resuspended in fresh THP1 media (RPMI 1640, 10% heat-inactivated FBS, 1×PGS, 1×NEAA, plus 30 μM βME) at a concentration of 1.5×10^6 cells per mL. One hundred microliters of cells per well were plated in a polystyrene 96-well tissue culture plate. 1.5 micrograms per mL of bacterial LPS was prepared in THP1 media and transferred to the first 11 columns of a 96-well polypropylene plate. Column 12 contained only THP1 media for the LO control. Compounds were dissolved in 100% DMSO and serially diluted 3 fold in a polypropylene 96-well microtiter plate (drug plate). Columns 6 and 12 were reserved as controls (HI controls and LO controls respectively) and contained only DMSO. 10 μL of LPS followed by one microliter of inhibitor compound from the drug plate was transferred to the cell plate. The treated cells were induced to synthesize and secrete TNF-α in a 37° C. humidified incubator with 5% CO2 for 3 hours. Fifty microliters of conditioned media was transferred to a 96-well MULTI-ARRAY™ 96-well small spot plate—custom coated with MAB610 containing 100 μL of 2× Read Buffer P supplemented with 0.34 nM AF210NA polyclonal Ab labeled with ruthenium (MSD—Sulfo-TAG™—NHS ester). After an overnight incubation at room temperature with shaking, the reaction was read on the Sector Imager™ 6000. […] The amount of secreted TNF-α in the presence of test compounds compared with that in the presence of DMSO vehicle alone (HI control) was calculated using the formula: % control (POC)=(cpd−average LO)/(average HI−averageLO)*100. Data (consisting of POC and inhibitor concentration in μM) was fitted to a 4-parameter equation (y=A+((B−A)/(1+((x/C)^D))), where A is the minimum y (POC) value, B is the maximum y (POC), C is the x (cpd concentration) at the point of inflection and D is the slope factor) using a Levenburg-Marquardt non-linear regression algorithm.

The subject of assay [3] is production of IL-1β, IL-6, and TNF-α by PBMC activated with LPS. Put plainly: Lipopolysaccharide-activated PBMC cytokine production assay. The note with it: Homo sapiens, read-out: IC50 in PBMC cytokine production assay. The assay is classed as cell-based. Here is the method: Lipopolysaccharide-Activated Pbmc Cytokine Production Assay
Test compounds were evaluated in vitro for the ability to inhibit the production of IL-1β, IL-6, and TNF-α by PBMC activated with bacterial lipopolysaccharide (LPS). Fresh leukocytes were obtained from a local blood bank, and peripheral blood mononuclear cells (PBMCs) were isolated by density gradient centrifugation on Ficol-Paque Plus (Pharmacia).
Preparation of Test Compound Stock Solutions
All reagents were prepared in RPMI 1640+10% v/v human AB serum+1× Pens/Strep/Glu (assay medium). Test compounds were dissolved in 100% DMSO and serially diluted in 96-well polypropylene round bottom micro titer plates (drug plate). Serial dilutions were then diluted 1:250 into assay medium to a 4× working concentration. Compound serial dilutions were half-log, 10 point titrations with a final starting concentration of 1 μM.
Treatment of Cells with Test Compounds and Activation with Lipopolysaccharide
LPS was prepared to a 4× concentration in assay medium. 100 μl of PBMC (1×10^6 cells/ml) were plated in a 96-well polystyrene flat bottom micro titer tissue culture plate and incubated with 50 μl of 4× compound serial dilution for 1 hour at 37° C., 5% CO2 in a tissue culture incubator. 50 μl 4×LPS or control was added and the plates were incubated at 37° C., 5% CO2 in a tissue culture incubator for 18 hours. The final DMSO concentration was 0.1%. The total volume was 200 μL. The final LPS concentration was 100 ng/mL. After 18 hours culture supernatants were removed and IL-1β, IL-6, and TNF-α presence in the supernatants was quantified using MSD ECL based technology.
20 μL of culture supernatant were added to MSD plates, and incubated for one hour at room temperature. 20 μL of detection antibody diluted in antibody diluent (1 μg/mL), and 110 μL of 2× Read Buffer P was added, and incubated for one hour at RT. Electrochemiluminescence was measured using the SECTOR HTS Imager (MSD, Gaithersburg, Md.).
Compound IC50 values were calculated as follows: The proportion of cytokine production in the presence of compound compared to the cytokine production in the presence of the DMSO vehicle alone (Hi control) was calculated using the formula: Percent Control (POC)=(compound−average Lo)/(average Hi−average Lo)*100.

A further assay has as its target recombinant human p38α (Homo sapiens, UniProt Q16539). Put plainly: Purified and activated recombinant human p38α HTRF assay. The assay is classed as biochemical. Particulars: 1 nM p38α, 50 μM ATP, GST-ATF2 substrate, read-out: p38a IC50. The protocol: Purified and Activated Recombinant Human p38α Assay Kinase Reaction Buffer: […] HTRF Detection Buffer: […] Serial Dilution of Compounds: […] Columns 6 and 12 (HI controls and LO controls respectively) in the drug plate were reserved as controls and contained only DMSO. Kinase Reaction: […] See table below for actual concentrations. In the absence of substrate, the background was measured as LO control. […] Assay Reagent Concentrations: […] HTRF Detection: […] After 60 minutes incubation at room temperature, the assay plate was read in a Discovery Plate Reader. The wells were excited with coherent 320 nm light and the ratio of delayed ([…] post excitation) emissions at […] (native europium fluorescence) and 665 nm (europium fluorescence transferred to allophycocyanin-an index of substrate phosphorylation) was determined (Park et al, 1999). Data Analysis: […] Data (consisting of POC and inhibitor concentration in μM) was fitted to a 4-parameter equation ([…]))), where A is the minimum y (POC) value, B is the maximum y (POC), C is the x (compound concentration) at the point of inflection and D is the slope factor, using a Levenburg-Marquardt non-linear regression algorithm. The inhibition constant (Ki) of the inhibitor was estimated from the IC50 (compound concentration at the point of inflection C) using the Cheng-Prussof equation: […] All results were expressed as the mean±the standard error of the mean. Data acquisition and non-linear regression algorithms were performed using Activity Base v5.2 and XL-fit software v4.1 respectively. All data was archived using Activity Base v5.2 software.

Assay [4] deals with LPS-induced TNF-α production. Put plainly: Inhibition of LPS-induced TNF-α production in rats. The assay is classed as in vivo. The note with it: Rattus norvegicus, read-out: ED50, inhibition of LPS-induced TNF-α production. The protocol:
Inhibition of LPS-Induced TNF-α Production Rats
LPS was diluted in PBS (100 μg per rat). Rats (n=6) were pretreated with vehicle or compound (0.03, 0.1, 0.3 and 1.0 mg/kg, PO) 60 minutes prior to the injection of LPS (100 μg per rat/IV, tail vein). Blood was harvested via decapitation 90 minutes following the administration of LPS. Blood was centrifuged at 12,000 rpm for 12 minutes to obtain plasma. Plasma samples were stored at −80 C. TNF-α levels were determined by ELISA for treatment groups that received LPS. Rat TNF-α levels were analyzed using rat TNF-α CytoSet kit from Biosource International. ELISA was completed according to the manufacturer's instructions. The concentration of TNF-α was interpolated from absorbance using the standard curve generated. For each individual sample, the TNF value from the dilution series that fell in the most linear portion of the standard curve was chosen and used for data analysis. The limit of quantitation of the ELISA was 1,000 pg/mL.

The subject of assay [5] is TNF-α induced IL-8 in 50% human whole blood. Put plainly: Inhibition of TNF-α induced IL-8 in 50% human whole blood. It is filed as cell-based. Particulars: TNF-α (1 nM) induced IL-8, 50% human whole blood, 16-18 h, read-out: WB TNF/IL8 IC50. Here is the method:
Inhibition of TNF-α Induced IL-8 in 50% Human Whole Blood
Test compounds were evaluated in vitro for the ability to inhibit the production of secreted IL-8 by whole blood activated with TNF-α. Fresh human whole blood was obtained from healthy, non-medicated volunteers in sodium heparin tubes.
Compound Dilution—Assay Procedure
Test compounds are serially diluted 1:3 in DMSO and then diluted 1:250 into R10 (RPMI 1640, 10% human serum AB, 1× pen/strep/glutamine) to the 4× working concentration to be used in the assay. 100 ul heparinized whole blood is plated into wells of 96 well flat bottom plates. 50 ul of either 4× compound or DMSO control (Final DMSO concentration is 0.1%) are added to the appropriate wells. Plates are incubated for 1 hour at 37 degrees Celsius. 50 ul of 4×TNF-α (4 nM TNF-α, for a final concentration of 1 nM) or control (media alone) is added to the appropriate wells (Total volume=200 ul). Plates are incubated overnight (16-18 hours). 100 ul of supernatant is collected and stored in 96-well round bottom polypropylene plates at −80 degrees Celsius or assayed immediately for IL-8.
Cytokines are measured on antibody (Ab) sandwich ECL based 96-well detection plates. 20 ul of supernatant are added to plate and plate is sealed and shaken at RT for 1 hour. 130 ul of detection Ab cocktail is added and plates are sealed and shaken for 1 hour in the dark at RT. Plates are read on MSD Sector HTS instrument. Data are analyzed and IC50 values generated using Activity Base and X1-fit programs.

The mark [6] stands for this setting: THP-1, THP1 cells, LPS, 3 hours.

The results in this text go back to US8455495B2, “Pyridazino-pyridinone compounds and methods of use” (Amgen Inc., priority 2008, dated 2013).

Where two headings read alike, the source gives them in different places. Some results are limits rather than exact numbers.

recombinant human p38α, sequence (Q16539 whole entry): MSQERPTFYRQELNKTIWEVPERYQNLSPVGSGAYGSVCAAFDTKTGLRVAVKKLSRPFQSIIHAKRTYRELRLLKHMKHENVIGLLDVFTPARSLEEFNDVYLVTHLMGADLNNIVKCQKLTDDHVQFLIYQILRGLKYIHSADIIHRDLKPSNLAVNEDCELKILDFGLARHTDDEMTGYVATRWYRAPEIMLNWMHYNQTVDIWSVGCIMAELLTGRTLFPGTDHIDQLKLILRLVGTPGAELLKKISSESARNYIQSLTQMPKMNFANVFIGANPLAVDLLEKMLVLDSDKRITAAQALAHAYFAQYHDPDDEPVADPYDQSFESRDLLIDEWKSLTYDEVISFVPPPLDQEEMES

`Cc1ccc(C(=O)NC2CC2)cc1-c1cc2cnnc(-c3ccc(F)cc3F)c2n(C)c1=O` [Example 1, N-cyclopropyl-3-(8-(2,4-difluorophenyl)-1-methyl-2-oxo-1,2-dihydropyrido[3,2-d]pyridazin-3-yl)-4-methylbenzamide]: the ED50 in assay [1] was found to be 0.03 mg/kg; in assay [4] it was 0.06 mg/kg. The IC50 is ≤ 1000 nM in assay [2] (THP-1, 3 h); ≤ 1000 nM in assay [3] (18 h); 2.3 nM at recombinant human p38α.

In the case of `Cc1c(F)cc(C(=O)NC2CC2)cc1-c1cc2cnnc(-c3ccc(F)cc3F)c2n(C)c1=O` [Example 3, N-cyclopropyl-3-(8-(2,4-difluorophenyl)-1-methyl-2-oxo-1,2-dihydropyrido[3,2-d]pyridazin-3-yl)-5-fluoro-4-methylbenzamide], the IC50 in assay [2] (THP-1, 3 h) was ≤ 1000 nM; in assay [3] (18 h), ≤ 1000 nM; at recombinant human p38α, 1.7 nM. In addition, the ED50 in assay [4] was 0.04 mg/kg.

Consider `Cc1ccc(C(=O)Nc2ccnn2C)cc1-c1cc2cnnc(-c3ccc(F)cc3F)c2n(C)c1=O` [Example 15, 3-(8-(2,4-difluorophenyl)-1-methyl-2-oxo-1,2-dihydropyrido[2,3-d]pyridazin-3-yl)-4-methyl-N-(1-methyl-1H-pyrazol-5-yl)benzamide], for which the IC50 was ≤ 1000 nM in assay [2] (setting [6]); ≤ 1000 nM in assay [3] (LPS 100 ng/mL, 18 hours); 7.5 nM on recombinant human p38α; 4.1 nM in assay [5].

Consider `Cc1ccc(C(=O)NC2CC2)cc1-c1cc2cnnc(-c3cc(F)ccc3Cl)c2n(C)c1=O` [Example 18, 3-(8-(2-chloro-5-fluorophenyl)-1-methyl-2-oxo-1,2-dihydropyrido[2,3-d]pyridazin-3-yl)-N-cyclopropyl-4-methylbenzamide], for which the IC50 in assay [2] (setting [6]) is ≤ 1000 nM; in assay [3] (LPS 100 ng/mL, 18 hours), ≤ 1000 nM; on recombinant human p38α, 1.7 nM; in assay [5] it was 2.2 nM.

Regarding `Cc1ccc(C(=O)NC2(C)CC2)cc1-c1cc2cnnc(-c3ccc(F)cc3Cl)c2n(C)c1=O` [Example 20, 3-(8-(2-chloro-4-fluorophenyl)-1-methyl-2-oxo-1,2-dihydropyrido[2,3-d]pyridazin-3-yl)-4-methyl-N-(1-methylcyclopropyl)benzamide], the IC50 in assay [2] (setting [6]) is ≤ 1000 nM; in assay [3] (LPS 100 ng/mL, 18 hours) it was ≤ 1000 nM; at recombinant human p38α it was 4.1 nM; in assay [5], 15.6 nM.

For the compound `Cc1ccc(C(=O)Nc2nccs2)cc1-c1cc2cnnc(-c3ccc(F)cc3Cl)c2n(C)c1=O` [Example 24, 3-(8-(2-chloro-4-fluorophenyl)-1-methyl-2-oxo-1,2-dihydropyrido[2,3-d]pyridazin-3-yl)-4-methyl-N-1,3-thiazol-2-ylbenzamide], the IC50 in assay [2] (setting [6]) was ≤ 1000 nM; in assay [3] (LPS 100 ng/mL, 18 hours) it was ≤ 1000 nM; on recombinant human p38α, 1 nM; in assay [5] it was 9.3 nM.
